Laboratory results: patent EP0497921B1, “METHOD FOR INHIBITING ENZYMATIC SYNTHESIS OF NUCLEIC ACIDS USING ISOPSORALENS” (ISAACS, Stephen T., priority 1989, dated 1991)
Marks after values point to notes of the source that are not given here.

What was measured:
[1] = Solubility of photoreactive compounds in 1 X TE (optical density of filtrate); format: physicochemical; conditions: 1 x te
Description: The solubilities of AMIP, AMDMIP, DMIP, MIP and isopsoralen (IP) were determined experimentally according to the scheme set forth in Figure 5. To perform the solubility measurement, it was first necessary to establish known optical densities for a 1 µg/ml solution of each compound. These were determined by preparing either ethanolic or aqueous stocks of each compound at known concentrations in 1 x TE, then measuring the optical density of each solution. From this information, the absorption of a 1 µg/ml solution was computed. Alternatively, the extinction coefficient may be thus determined and used in the same fashion. In this manner, the following absorption data was collected:
Following this step, undissolved compound was removed by filtration using a 0.2 u nylon-66 syringe filter (Arco LC13; Gelman). The concentration of the remaining soluble compound was then determined by measuring the optical density of the filtrate and computing the solubility from the known optical density of a 1 µg/ml solution of that compound. The solubility of the compounds was thus determined to be as follows: […]

[2] = tested on: Taq I DNA polymerase; assay: Primer extension on site-specific 71-mer monoadduct template; format: biochemical, Thermus aquaticus; conditions: for Taq polymerase extension on 71-mer monoadduct template / position of the Taq polymerase stop within the 71-mer: 55°C, PAGE, autoradiography; for Taq polymerase extension on 71-mer monoadduct template: 0.5, 1.0, 5.0 mins
Description: In this experiment, monoadducted 71-mers (as well as unmodified 71-mers) were used in template-dependent enzymatic extension. AMIP, AMDMIP, and MIP 71-mer monoadducts were made as in Example 17. Extension was carried out as in Example 18 except that in this experiment, Taq I DNA polymerase, a thermostable DNA polymerase isolated from Thermus aquaticus (Stratagene, Inc., La Jolla, CA) was assessed for its ability to read past isopsoralens.
The reaction mixture was in 80 µl total volume and comprised 1 x Taq buffer, 200 µM each of dNTP's, 0.05 units of Taq per µl of reaction volume; 1 x 10^-9 M in 71-mer MA; 1 x 10^-8 M in ^32P-labelled SK-39. Each reaction was set up with everything except Taq polymerase. The samples were initially heated to 95°C for 5 mins, then incubated at 55°C for 3 mins. The extension reaction was initiated by addition of Taq polymerase. At the indicated time points (0.5, 1.0, 5.0 mins), 20 µl of the reaction mix was removed to a tube containing 1 µl of 0.5 M EDTA to stop the reaction. All products were analyzed on a 20% polyacrylamide, 7 M urea gel followed by autoradiography.
This experiment investigated whether blocking of Taq polymerase by monoadducts is complete or whether monoadducts can be bypassed by the enzyme. In order to view the process of bypass synthesis, it is necessary to cycle the extension reaction of the primer with the 71-mer templates. Cycling in this case consists of mixing the primer with the 71-mer template, adding Taq polymerase and appropriate reagents, extending, heating to induce strand separation, reannealing of the primer to the 71-mer template, extending again, and subsequent stand separation. This process can be repeated as necessary. During this process, only the complement of the 71-mer template is being synthesized. It is accumulating in a linear fashion with the number of thermal cycles (in contrast to PCR where both strands are being synthesized and accumulate geometrically).
The templates and reaction conditions were as in Example 19 above except that three samples were used for each monoadduct and each sample was tested under different conditions: • Samples (1): one sample for each monoadduct was used to carry out extension at 55°C as in Example 43; • Samples (2): one sample for each monoadduct was used to carry out extension by the following series of steps: denaturing at 95°C; incubating for 30 seconds at 55°C; adding Taq polymerase for 3 minutes at 550C; cooling the reaction for 1 minute at 7°C; stopping the reaction with EDTA for one minute at 95°C: • Samples (3): one sample for each monoadduct was used to carry out extension by repeating the following series of steps nine times: denaturing at 95°C; incubating for 30 seconds at 55°C; adding Taq polymerase for 3 minutes at 55°C; cooling the reaction for 1 minute at 7°C. At the end, the reaction is stopped with EDTA for one minute at 95°C.
To investigate this question further, a new 5-MIP monoadducted 71-mer was prepared by repurification of the HPLC purified 5-MIP monoadducted 15-mer by PAGE. In this way, more of the non-monoadducted 15-mer was removed prior to ligation. The purified 71-mer was then used as template in an extension experiment as described in Example 20. After 10 cycles, there was still evidence of extension product (Figure 34).
Monoadducted 71-mer was constructed as described, but for HMT. Extension was carried out and analyzed as before on PAGE. […] Full length 71-mer is not made and a shorter strand corresponding to the position of the HMT adduct was made.

Compound | Solubility in 1 X TE [1] | Taq polymerase extension on 71-mer monoadduct template [2] | position of the Taq polymerase stop within the 71-mer [2] | extension products truncated ([2]; monoadducted 15-mer repurified by PAGE before ligation, after 10 cycles) | full length extension product as share of the total extension products ([2]; monoadducted 15-mer repurified by PAGE before ligation, after 10 cycles, band excised and counted)
4'-Aminomethyl-4,5'-dimethylisopsoralen [AMDMIP] | > 22,700 * µg/ml | stops at positions that are shorter than the full length 71-mer product | a different stop altogether | – | –
5-Aminomethylisopsoralen [AMIP] | 21,000 µg/ml | stops at positions that are shorter than the full length 71-mer product | multiple stops | – | –
Cc1cc2occc2c2oc(=O)ccc12 [MIP, 5-Methylisopsoralen] | – | stops at positions that are shorter than the full length 71-mer product | at about the position of the TpA sequence in the 10-mer | 97.7% | 2.3%
